In BigSolDB 2.1:

S=c1[nH]c2ccccc2s1
solubility (mole fraction)
Details	in 1,4-dioxane	in 2-butanone	in acetonitrile	in chloroform	in ethyl acetate	in isobutanol
273.15 K	–	0.0695	0.00426	0.00683	0.0274	0.0101
275.65 K	–	0.0722	0.00467	0.0072	0.0286	0.011
278.15 K	–	0.0752	0.00507	0.00766	0.0297	0.012
280.65 K	–	0.0778	0.00553	0.00816	0.0309	0.0132
283.15 K	–	0.0807	0.00597	0.00865	0.0323	0.0143
285.65 K	0.0438	0.0837	0.00647	0.00922	0.0336	0.0155
288.15 K	0.0466	0.0867	0.00705	0.00972	0.0348	0.0169
290.65 K	0.0502	0.0902	0.00762	0.0104	0.0361	0.0184
293.15 K	0.0536	0.093	0.00819	0.0109	0.0374	0.0199
295.65 K	0.0574	0.0967	0.00885	0.0115	0.0389	0.0215
298.15 K	0.0613	0.0995	0.00956	0.0121	0.0403	0.0231
300.65 K	0.0652	0.103	0.0102	0.0128	0.0419	0.0252
303.15 K	0.0698	0.106	0.011	0.0135	0.0434	–
305.65 K	0.0742	0.11	0.0118	0.0142	0.0448	–
308.15 K	0.079	0.113	0.0127	0.0149	0.0465	–
310.65 K	0.0835	0.116	0.0137	0.0156	0.0482	–
313.15 K	0.0893	0.12	0.0146	0.0165	0.0499	–
315.65 K	0.0943	0.124	0.0155	0.0172	0.0513	–
318.15 K	0.101	0.128	0.0167	0.0182	0.0532	–
